Measured values taken from patent US20060062729A1, “Enhanced ligand binding to neurotensin receptors” (priority 2004, published 2006).
Values joined by “and” are separate entries in the source; they are usually repeats but may differ in a detail not shown here. Identical values can stand only once. No end group written: not given here.

What was measured:
bombesin receptor = molecular target: T1, bombesin receptor (Homo sapiens, UniProt P30550); test: ^125I-[Nle^14]-bombesin binding to PC3 cells; settings: for Specific Binding (% control) of ^125I-[Nle14]-bombesin: 37° C.
T1 construct: endogenous in cells; host or cells: PC3 cells (ATCC)

5-LOX = molecular target: T2, 5-LOX (Homo sapiens, UniProt P09917); settings: range of reported values, various blood cell systems; cited from earlier work
T2 sequence (P09917 1-674): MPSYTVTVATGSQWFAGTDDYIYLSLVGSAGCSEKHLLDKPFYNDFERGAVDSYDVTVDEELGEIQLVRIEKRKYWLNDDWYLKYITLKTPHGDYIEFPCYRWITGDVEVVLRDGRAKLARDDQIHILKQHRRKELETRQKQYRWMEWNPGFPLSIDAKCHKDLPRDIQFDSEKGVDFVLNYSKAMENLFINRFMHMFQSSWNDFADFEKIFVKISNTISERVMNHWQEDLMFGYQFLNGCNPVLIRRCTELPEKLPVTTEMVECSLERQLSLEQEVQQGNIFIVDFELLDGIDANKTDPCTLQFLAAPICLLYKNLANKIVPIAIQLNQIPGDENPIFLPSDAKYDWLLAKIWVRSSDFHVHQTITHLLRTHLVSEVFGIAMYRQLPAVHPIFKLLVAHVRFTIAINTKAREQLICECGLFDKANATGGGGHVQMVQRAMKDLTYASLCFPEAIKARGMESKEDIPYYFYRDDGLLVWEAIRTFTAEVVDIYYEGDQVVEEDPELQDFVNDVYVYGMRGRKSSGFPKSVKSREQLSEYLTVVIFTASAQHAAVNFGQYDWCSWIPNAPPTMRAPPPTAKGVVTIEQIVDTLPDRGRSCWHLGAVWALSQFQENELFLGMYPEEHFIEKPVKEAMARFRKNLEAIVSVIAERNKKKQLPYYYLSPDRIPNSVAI

EGF receptor = molecular target: T3, EGF receptor (Homo sapiens, UniProt P00533); test: ^125I-EGF binding to PC3 cells; settings: PC3 cells (text to Table 9)
T3 construct: endogenous in cells; host or cells: PC3 cells (ATCC)

NTR1 [1] = molecular target: T4, NTR1 (Homo sapiens, UniProt P30989); test: UV crosslinking of ^125I-(4-azido-Phe^6)-NT into immunoprecipitated NTR1 of PC3 cells; format: binding; design: Ab-NTR1 detected two major bands in extracts of PC3 cells, the parent protein of 50 kDa; endogenous in cells; host or cells: PC3 cells (ATCC); settings: 50 μM agent
NTR1 [2] = molecular target: T4, NTR1; test: ^125I-NT binding to PC3 cells
NTR1 [3] = molecular target: T4, NTR1; test: ^125I-NT binding to isolated PC3 cell membranes; design: Ab-NTR1 detected two major bands in extracts of PC3 cells, the parent protein of 50 kDa; endogenous in cells; host or cells: PC3 cells (ATCC)
PC3 cells = test: ATP-induced IP formation in PC3 cells; format: cell-based; settings: maximal dose of ATP (10 μM)
NTR1 [4] = molecular target: T4, NTR1; test: NT-induced IP formation in PC3 cells; format: cell-based; design: Ab-NTR1 detected two major bands in extracts of PC3 cells, the parent protein of 50 kDa; endogenous in cells; host or cells: PC3 cells (ATCC); settings: maximal % decrease in NT-induced IP formation
NTR1 [5] = molecular target: T4, NTR1; format: cell-based; design: Ab-NTR1 detected two major bands in extracts of PC3 cells, the parent protein of 50 kDa; endogenous in cells; host or cells: PC3 cells (ATCC); settings: 50 μM agent, 37° C., ^125I-NT prebound at 4° C.
[6] = molecular target: neurotensin-1 receptor (NTR1) (Homo sapiens, UniProt P30989); settings: read-out: binding affinity; cited from earlier work
[7] = molecular target: neurotensin-2 receptor (NTR2) (Homo sapiens, UniProt O95665); settings: read-out: binding affinity; cited from earlier work
Sequence of neurotensin-2 receptor (NTR2) (O95665 whole entry, species assumed): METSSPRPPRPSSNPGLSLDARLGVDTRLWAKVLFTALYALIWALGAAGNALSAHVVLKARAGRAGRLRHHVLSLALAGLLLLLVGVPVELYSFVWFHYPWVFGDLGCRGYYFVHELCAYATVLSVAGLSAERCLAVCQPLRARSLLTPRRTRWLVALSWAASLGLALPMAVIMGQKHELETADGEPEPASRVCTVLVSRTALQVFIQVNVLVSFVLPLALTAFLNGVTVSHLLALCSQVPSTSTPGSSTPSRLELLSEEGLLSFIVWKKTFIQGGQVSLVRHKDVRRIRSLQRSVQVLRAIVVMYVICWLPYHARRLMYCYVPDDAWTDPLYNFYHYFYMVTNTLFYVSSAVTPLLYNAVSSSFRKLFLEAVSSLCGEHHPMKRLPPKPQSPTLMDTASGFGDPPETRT

T4 sequence (P30989 whole entry): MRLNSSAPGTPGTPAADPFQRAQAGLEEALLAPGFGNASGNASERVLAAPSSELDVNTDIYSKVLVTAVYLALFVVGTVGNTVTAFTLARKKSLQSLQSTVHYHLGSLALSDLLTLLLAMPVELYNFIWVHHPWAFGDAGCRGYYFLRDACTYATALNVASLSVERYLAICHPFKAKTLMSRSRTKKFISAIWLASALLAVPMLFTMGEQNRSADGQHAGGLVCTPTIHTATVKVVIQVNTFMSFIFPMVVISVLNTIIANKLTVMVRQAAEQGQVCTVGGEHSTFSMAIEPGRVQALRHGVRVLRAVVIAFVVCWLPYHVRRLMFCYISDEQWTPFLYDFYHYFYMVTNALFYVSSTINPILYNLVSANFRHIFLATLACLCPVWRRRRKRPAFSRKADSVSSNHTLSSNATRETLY
T1 sequence (P30550 whole entry): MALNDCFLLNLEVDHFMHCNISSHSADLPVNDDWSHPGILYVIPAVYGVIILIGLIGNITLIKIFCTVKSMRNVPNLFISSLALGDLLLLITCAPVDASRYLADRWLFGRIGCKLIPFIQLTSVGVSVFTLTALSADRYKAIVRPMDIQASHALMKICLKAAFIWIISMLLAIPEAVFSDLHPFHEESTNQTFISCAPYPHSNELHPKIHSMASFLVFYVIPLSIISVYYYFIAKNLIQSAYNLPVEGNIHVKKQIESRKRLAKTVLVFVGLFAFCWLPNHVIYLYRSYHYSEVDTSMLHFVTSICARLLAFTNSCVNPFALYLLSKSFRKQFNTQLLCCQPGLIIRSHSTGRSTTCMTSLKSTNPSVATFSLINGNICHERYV
Sequence of neurotensin-1 receptor (NTR1) (P30989 whole entry, species assumed): as the sequence (P30989 whole entry) above
T3 sequence (P00533 25-1210): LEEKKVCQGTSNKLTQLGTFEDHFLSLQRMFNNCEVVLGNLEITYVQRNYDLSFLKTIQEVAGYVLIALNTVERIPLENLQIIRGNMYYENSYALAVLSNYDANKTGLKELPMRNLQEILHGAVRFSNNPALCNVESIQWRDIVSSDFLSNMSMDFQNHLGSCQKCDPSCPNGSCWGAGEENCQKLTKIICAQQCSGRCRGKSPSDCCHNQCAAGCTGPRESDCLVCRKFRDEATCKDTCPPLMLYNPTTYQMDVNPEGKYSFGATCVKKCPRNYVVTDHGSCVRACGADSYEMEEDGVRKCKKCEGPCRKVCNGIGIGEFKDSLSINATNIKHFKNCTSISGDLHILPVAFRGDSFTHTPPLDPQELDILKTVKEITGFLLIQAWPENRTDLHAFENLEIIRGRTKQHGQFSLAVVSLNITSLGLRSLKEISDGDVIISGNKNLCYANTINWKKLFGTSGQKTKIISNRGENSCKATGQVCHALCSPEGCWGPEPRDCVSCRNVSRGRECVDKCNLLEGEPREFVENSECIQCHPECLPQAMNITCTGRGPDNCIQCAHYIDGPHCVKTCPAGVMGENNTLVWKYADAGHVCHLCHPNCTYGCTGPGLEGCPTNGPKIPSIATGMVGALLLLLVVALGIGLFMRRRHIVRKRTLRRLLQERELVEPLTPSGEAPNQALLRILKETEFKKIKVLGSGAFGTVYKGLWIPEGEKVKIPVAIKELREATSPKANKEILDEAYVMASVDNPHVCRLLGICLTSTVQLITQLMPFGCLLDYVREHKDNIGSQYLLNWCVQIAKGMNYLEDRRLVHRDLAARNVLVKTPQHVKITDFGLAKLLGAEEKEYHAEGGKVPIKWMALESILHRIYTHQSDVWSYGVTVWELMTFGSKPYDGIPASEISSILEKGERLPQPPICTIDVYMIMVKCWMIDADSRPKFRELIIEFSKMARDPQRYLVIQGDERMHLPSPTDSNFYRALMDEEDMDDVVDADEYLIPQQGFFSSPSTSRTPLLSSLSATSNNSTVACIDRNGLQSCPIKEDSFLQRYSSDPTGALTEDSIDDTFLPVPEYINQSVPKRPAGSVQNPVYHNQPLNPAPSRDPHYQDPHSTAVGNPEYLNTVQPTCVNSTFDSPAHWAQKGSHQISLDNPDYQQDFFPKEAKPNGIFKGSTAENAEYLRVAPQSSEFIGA

Compound: CC(C)c1ccc2c(c1)c(SC(C)(C)C)c(CC(C)(C)C(=O)O)n2Cc1ccc(Cl)cc1 [MK886]
- Specific Binding (% control) of ^125I-[Nle14]-bombesin (bombesin receptor; 12 μM LOX blocker): 106 ± 5 % control
- Specific Binding (% control) of ^125I-[Nle14]-bombesin (bombesin receptor; 60 μM LOX blocker): 125 ± 7 % control
- IC50 (5-LOX): 100 to 1000 nM
- increase in EGF binding (EGF receptor): 65%
- radioactivity associated with NTR1 (NTR1 [1]): 2.7±0.3 fold
- NT Binding Efficacy % increase (NTR1 [2]; LOX blockers): 210 % increase
- maximal increase in NT binding to PC3 cells (NTR1 [2]; as much as / up to, dose-response): ≤ 3.0 fold
- EC50 (NTR1 [2]; read-out: NT Binding EC50, [agent] giving 100% increase in NT binding): 18000 nM
- Specific NT-Binding (% control) (NTR1 [3]; 10 μM LOX pathway blocker): 99 ± 3 % control
- Specific NT-Binding (% control) (NTR1 [3]; 25 μM LOX pathway blocker): 107 ± 4 % control
- Specific NT-Binding (% control) (NTR1 [3]; 75 μM LOX pathway blocker): 97 ± 4 % control

Compound: Nc1ncnc2c1ncn2[C@@H]1O[C@H](COP(=O)(O)OP(=O)(O)OP(=O)(O)O)[C@@H](O)[C@H]1O [ATP]
- stimulation of IP formation (PC3 cells): ~17 fold and > 15 fold

Compound: O=C(CCc1ccc(O)cc1)c1c(O)cc(O)cc1O [Phloretin]
- Specific Binding (% control) of ^125I-[Nle^14]-bombesin (bombesin receptor; 12 μM agent): 104 ± 3 % control
- Specific Binding (% control) of ^125I-[Nle^14]-bombesin (bombesin receptor; 60 μM agent): 111 ± 4 % control
- NT Binding Efficacy % increase (NTR1 [2]; maximal % increase in NT binding observed for each agent): 186 % increase
- Specific NT-Binding (% control) (NTR1 [3]; 10 μM agent, 22° C., 60 minutes): 110 ± 7 % control
- Specific NT-Binding (% control) (NTR1 [3]; 25 μM agent): 105 ± 8 % control
- Specific NT-Binding (% control) (NTR1 [3]; 75 μM agent): 97 ± 8 % control
- IP Formation Efficacy (% decrease) (NTR1 [4]): 70 % decrease
- Internalization rate (NTR1 [5]): 8.1±0.7 %/minute

Compound: Trp 11 NT(1-13): peptide identical to NT (1-13) except tryptophan for tyrosine at amino acid 11 (QLYENKPRRPWIL; ends and bridges not checked; UniProt P30990 151-163, looked up, variant Y11W)
- Kd [6]: ~1 nM
- Kd [7]: ~27 nM
